This is an account of results in patent EP4768482A1, “THIOBENZIMIDAZOLE DERIVATIVE OR PHARMACEUTICALLY ACCEPTABLE SALT THEREOF, AND USE THEREOF” (Korea University Research and Business Foundation, priority 2023, dated 2025).

The test system of the assay is MDA-MB-231. The experiment in a line: MTS cell viability assay, MDA-MB-231 breast cancer cell line. Format: cell-based. Conditions: Homo sapiens, MDA-MB-231 cell line, 0-10 µM, 72 hours. The procedure:
MDA-MB-231 (Cell seeding numbers: 0.8(M231) x 10^4 cells/wells (confluency ≧ 25%), which is a human triple-negative breast cancer (TNBC) cell line, and JIMT-1 (Cell seeding numbers: 0.8(JIMT) x 10^4 cells/wells (confluency ≧ 25%)), which is a HER2 positive breast cancer (HER2+ BC) cell line, were used in the experiment.
The above cell lines were cultured in an environment of 5% CO2 and 37°C in a Dulbecco's modified Eagle's medium (DMEM) including a 10% fetal bovine serum (FBS), a streptomycin-penicillin (100 U/mL), and a Fungizone (0.625 µg/mL), respectively.
The human breast cancer cell lines MDA-MB-231 and JIMT-1 were treated with thiobenzimidazole derivatives of Formulas 1-1 to 1-10 at concentrations of 0, 0.5, 1, and 5 µM, respectively, for 72 hours, and then cell viability was measured using the MTS assay technique. In the MTS assay, cells were attached to a 96-well plate for 24 hours, treated with the thiobenzimidazole derivative for 72 hours, developed with MTS (3-(4,5-dimethylthiazol-2-yl)-5-(3-carboxymethoxyphenyl)-2-(4-sulfophenyl)-2H-tetrazolium) for 4 hours, and then absorbance was measured at 490 nm using a Spectramax Plus384 microplate analyzer. The results are illustrated in FIG. 1, and as illustrated in the drawing, it was confirmed that the thiobenzimidazole derivatives of Formula 1-1 to 1-10 inhibited cell viability in a concentration-dependent manner in the human breast cancer cell lines MDA-MB-231 and JIMT-1.
The MDA-MB-231 and JIMT-1 cell lines were treated with thiobenzimidazole derivatives (Formula 1-1 to 1-4) of the disclosure at concentrations of 0, 0.01, 0.05, 0.1, 0.25, 0.5, 1, 5, and 10 µM, respectively, and then cell viability and IC50 values therefrom were confirmed. The preparation method of the cell lines and the experimental method were the same as those performed in Example 1.

The molecule `COC(=O)Nc1nc2cc(Sc3ccc(N4CCC(N5CCOCC5)CC4)cc3)ccc2[nH]1` [Formula 1-1, Methyl (5-((4-(4-morpholinopiperidin-1-yl)phenyl)thio)-1H-benzo[d]imidazol-2-yl)carbamate] returned an IC50 of 592 nM.

Consider `COC(=O)Nc1nc2cc(Sc3ccc(N4CCOCC4)c(F)c3)ccc2[nH]1` [Formula 1-2, Methyl (5-((3-fluoro-4-morpholinophenyl)thio)-1H-benzo[d]imidazol-2-yl)carbamate], for which the IC50 worked out at 174 nM.

`COC(=O)Nc1nc2cc(Sc3ccc(N4CCN(C)CC4)c(F)c3)ccc2[nH]1` [Formula 1-3, Methyl (5-((3-fluoro-4-(4-methylpiperazin-1-yl)phenyl)thio)-1H-benzo[d]imidazol-2-yl)carbamate] displayed an IC50 of 583 nM.

Molecule `COC(=O)Nc1nc2cc(Sc3ccc(N4CCC(O)CC4)nc3)ccc2[nH]1` [Formula 1-4, Methyl (5-((6-(4-hydroxypiperidin-1-yl)pyridin-3-yl)thio)-1H-benzo[d]imidazol-2-yl)carbamate] returned an IC50 of 135 nM.
